From patent US20220088024A1, “METHODS FOR TREATING CANCER USING TOZADENANT” (Biotie Therapies, Inc., priority 2018, published 2022)
Values joined by “and” are separate entries in the source; they are usually repeats but may differ in a detail not shown here. Identical values can stand only once. Like-named read-outs stand apart in the source and are kept apart here.

Experiments:
[1] = system: AT-3ova CD73+ tumour (mouse breast carcinoma cell line AT-3); experiment: Example 2: anti-tumor responses of SYN-115 in the AT-3ova CD73+ tumour cell mouse model (tumor area); format: in vivo, C57/BL6 mice
Description: The C57BL/6 mouse breast carcinoma cell line AT-3 was obtained from Dr. Trina Stewart (Griffith University, Nathan, QLD, Australia. Tumor cell lines were transduced to express chicken ovalbumin peptide and CD73 as previously described (1, 2, 3). Tumor cells are periodically verified to be Mycoplasma negative by the Victorian Infectious Diseases References Lab (Melbourne, VIC, Australia) by PCR analysis. Tumor cells were grown in DMEM supplemented with 10% FCS, GlutaMAX, and penicillin/streptomycin. 5×10^5 cells were resuspended in PBS and injected s.c. into C57/BL6 mice in a 100 μL volume. At day 14 tumors were measured and mice were randomized into distinct treatment groups to ensure that each group had tumors of similar size at the onset of treatment. Mice were treated i.p. at days 14, 18, 22, and 26 with either isotype control (2A3; 200 μg/mouse) or anti-PD-1 mAb (RMP1-14, 200 μg/mouse) and where indicated, SYN-115 (Batch 71236AA002) at the indicated dose or vehicle control once-daily via oral gavage on days 14 to 29. To calculate a dose of SYN-115 mouse weight was estimated to be 20 g per mouse. Therefore, 100 mg/kg=2 mg per mouse in 200 μL, which is equivalent to 10 mg/ml. To make up 40 mL, 400 milligrams of SYN-115 was weighed and added into a Falcon tube, then 1 mL of Tween 80 was added and mixed into a paste and then 39 mL of 1% Methyl Cellulose was added. The solution was vortexed and then left on rotating mixer for at least 2 hours and maintained at 4° C. Tumor measurements were taken 2-3 times per week. Tumor sizes were determined by width * length and mice were culled when tumors reached the ethical limit of 150 mm^2.

[2] = system: B16F10 Cherry melanoma metastases; experiment: Example 10: number of lung tumor metastases in the B16F10 tumor mouse model; format: in vivo, C57/BL6 mice; settings: 100 mg/kg once-daily oral gavage days 0 to 13, counted day 14, Batch 71236AA006
Description: The C57/BL6 mouse melanoma cell line B16F10 Cherry was cultured in DMEM supplemented with 10% FCS, GlutaMAX, and penicillin/streptomycin. Tumor cells are periodically verified to be Mycoplasma negative by the Victorian Infectious Diseases References Lab (Melbourne, VIC, Australia) by PCR analysis. 2×10^5 cells were resuspended in PBS and injected i.v. into C57/BL6 mice in a 200 μL volume. At day 14 lungs were excised and the number of metastases counted under the dissecting microscope. Mice were dosed with either SYN-115 (Batch 71236AA006) at 100 mg/kg or vehicle control once-daily via oral gavage on days 0 to 13. To calculate a dose of SYN-115 mouse weight was estimated to be 20 g per mouse. Therefore, 100 mg/kg=2 mg per mouse in 200 μL, which is equivalent to 10 mg/ml. To make up 40 mL, 400 milligrams of SYN-115 was weighed and added into a Falcon tube, then 1 mL of Tween 80 was added and mixed into a paste and then 39 mL of 1% Methyl Cellulose was added. Solution was vortexed and then left on a rotating mixer for at least 2 hours and maintained at 4° C.

[3] = Example 13: calculation of predicted human dose from mouse and human PK; settings: for AUC: mouse, plasma
Description: Using the PK data above in mice and humans, a human efficacious dose was estimated by identifying a dose in humans that would result in plasma exposures similar to the efficacious dose in the oncology models in mice. The 100 mg/kg/day dose studied for PK in mice and the 180 mg dose studied for PK in humans were the relevant doses used in this estimation.
This predicted human efficacious dose for tozadenant for treating cancer based on the measured PK data can be contrasted to the predicted dose that would be calculated by the less informed but standard approach of using body surface area comparisons between mice and humans, whereby the equivalent dose in humans would be calculated by dividing the dose in mice by 12.3 (see, e.g., Nair A B, Jacob S. A simple practice guide for dose conversion between animals and human. J Basic Clin Pharma 2016;7:27-31). This approach would result in a predicted efficacious dose of 0.24 mg/kg in humans, which is equivalent to approximately 17 mg in a typical 70 kg human. Thus, this prediction using the standard method results in a targeted human dose more than an order of magnitude higher than the one informed by PK.

- AUC ([3]; oral, mice, 3 mg/kg efficacious dose, read-out: Point estimate AUC (linear extrapolation)): ~106 ng·h/mL
- AUC ([3]; 2 mg/kg dose in mice, read-out: Target AUC in humans): 71 ng·h/mL
- Predicted human dose achieving target AUC ([3]; target AUC of 71 hr*ng/mL (2 mg/kg mouse dose)): approximately 0.6 mg
- Predicted human dose achieving target AUC ([3]; target AUC of 106 hr*ng/mL (3 mg/kg mouse dose)): approximately 0.9 mg
Compound: COc1ccc(N2CCOCC2)c2sc(NC(=O)N3CCC(C)(O)CC3)nc12 [SYN-115, 4-hydroxy-4-methyl-piperidine-1-carboxylic acid (4-methoxy-7-morpholin-4-yl-benzothiazol-2-yl)-amide]
- Tumor size (width * length) ([1]; 2A3 (200 μg/Mouse)+SYN-115 (100 mg/kg), Day 39): 123.2 mm^2 and 91.35 mm^2 and 103.88 mm^2
- Tumor size (width * length) ([1]; 2A3 (200 μg/Mouse)+SYN-115 (100 mg/kg), Day 45): 143 mm^2
- Tumor size (width * length) ([1]; Anti-PD-1 (200 ug)+SYN-115 (10 mg/kg), Day 50): 48.38 mm^2 and 66.22 mm^2
- Tumor size (width * length) ([1]; Anti-PD-1 (200 ug)+SYN-115 (10 mg/kg), Day 53): 53.6 mm^2 and 83.72 mm^2
- Tumor size (width * length) ([1]; Anti-PD-1 (200 ug)+SYN-115 (10 mg/kg), Day 57): 63.19 mm^2 and 81.6 mm^2
- Tumor size (width * length) ([1]; Anti-PD-1 (200 ug)+SYN-115 (10 mg/kg), Day 60): 72.72 mm^2 and 80.04 mm^2
- Tumor size (width * length) ([1]; Anti-PD-1 (200 ug)+SYN-115 (10 mg/kg), Day 64): 91.64 mm^2 and 104.86 mm^2
- Tumor size (width * length) ([1]; Anti-PD-1 (200 ug)+SYN-115 (10 mg/kg), Day 68): 121.26 mm^2
- Tumor size (width * length) ([1]; Anti-PD-1 (200 ug)+SYN-115 (30 mg/kg), Day 57): 75.24 mm^2 and 44.22 mm^2
- Tumor size (width * length) ([1]; Anti-PD-1 (200 ug)+SYN-115 (30 mg/kg), Day 60): 89.25 mm^2 and 48.28 mm^2
- Tumor size (width * length) ([1]; Anti-PD-1 (200 ug)+SYN-115 (30 mg/kg), Day 64): 107.1 mm^2 and 69.52 mm^2
- Tumor size (width * length) ([1]; Anti-PD-1 (200 ug)+SYN-115 (30 mg/kg), Day 68): 92.22 mm^2
- Tumor size (width * length) ([1]; Anti-PD-1 (200 ug)+SYN-115 (100 mg/kg), Day 45): 101 mm^2 and 129.71 mm^2 and 75.84 mm^2
- Tumor size (width * length) ([1]; Anti-PD-1 (200 ug)+SYN-115 (100 mg/kg), Day 50): 136.4 mm^2
- Number of Tumor Metastases (lung), individual mice ([2]; AC#009 Males): 0 (2×) and 9 and 5 and 16 and 13 and 1
- Number of Tumor Metastases (lung), individual mice ([2]; AC#010 Females): 166 and 38 and 141 and 32 and 137 and 264 and 23 and 226
